According to patent publication US9346798B2, “Dihydrobenzoxazine and tetrahydroquinoxaline sodium channel inhibitors” (AMGEN INC., priority 2012, dated 2016):

Columns and labels:
Format in all cases: cell-based
Nav 1.7 [1] = target: T1, Nav 1.7 (Homo sapiens (Human), UniProt Q15858); assay: Nav 1.7 in vitro assay, IonWorks Quattro (IWQ) population patch-clamp; details: HEK 293 cells stably transfected with Nav 1.7; 26th pulse to -20 mV
Nav 1.7 [2] = target: T1, Nav 1.7; assay: Nav 1.7 in vitro PX assay, PatchXpress whole cell voltage clamp; details: HEK 293 cells stably transfected with human Nav1.7; partially inactivated state (20 to 50% inactivation)
Outline: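 HEK293 cells stably expressing human Nav1.7, whole-cell voltage clamp at a holding potential giving 20–50% inactivation; currents elicited by 20 msec pulses to −10 mV at 0.1 Hz.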

Nav 1.5 = Nav 1.5 (Homo sapiens (Human), UniProt Q14524); assay: Nav 1.5 in vitro assay, IonWorks Quattro (IWQ) population patch-clamp; details: HEK 293 cells stably transfected with Nav 1.5; 26th pulse to -20 mV
Nav 1.5, sequence (Q14524 whole entry): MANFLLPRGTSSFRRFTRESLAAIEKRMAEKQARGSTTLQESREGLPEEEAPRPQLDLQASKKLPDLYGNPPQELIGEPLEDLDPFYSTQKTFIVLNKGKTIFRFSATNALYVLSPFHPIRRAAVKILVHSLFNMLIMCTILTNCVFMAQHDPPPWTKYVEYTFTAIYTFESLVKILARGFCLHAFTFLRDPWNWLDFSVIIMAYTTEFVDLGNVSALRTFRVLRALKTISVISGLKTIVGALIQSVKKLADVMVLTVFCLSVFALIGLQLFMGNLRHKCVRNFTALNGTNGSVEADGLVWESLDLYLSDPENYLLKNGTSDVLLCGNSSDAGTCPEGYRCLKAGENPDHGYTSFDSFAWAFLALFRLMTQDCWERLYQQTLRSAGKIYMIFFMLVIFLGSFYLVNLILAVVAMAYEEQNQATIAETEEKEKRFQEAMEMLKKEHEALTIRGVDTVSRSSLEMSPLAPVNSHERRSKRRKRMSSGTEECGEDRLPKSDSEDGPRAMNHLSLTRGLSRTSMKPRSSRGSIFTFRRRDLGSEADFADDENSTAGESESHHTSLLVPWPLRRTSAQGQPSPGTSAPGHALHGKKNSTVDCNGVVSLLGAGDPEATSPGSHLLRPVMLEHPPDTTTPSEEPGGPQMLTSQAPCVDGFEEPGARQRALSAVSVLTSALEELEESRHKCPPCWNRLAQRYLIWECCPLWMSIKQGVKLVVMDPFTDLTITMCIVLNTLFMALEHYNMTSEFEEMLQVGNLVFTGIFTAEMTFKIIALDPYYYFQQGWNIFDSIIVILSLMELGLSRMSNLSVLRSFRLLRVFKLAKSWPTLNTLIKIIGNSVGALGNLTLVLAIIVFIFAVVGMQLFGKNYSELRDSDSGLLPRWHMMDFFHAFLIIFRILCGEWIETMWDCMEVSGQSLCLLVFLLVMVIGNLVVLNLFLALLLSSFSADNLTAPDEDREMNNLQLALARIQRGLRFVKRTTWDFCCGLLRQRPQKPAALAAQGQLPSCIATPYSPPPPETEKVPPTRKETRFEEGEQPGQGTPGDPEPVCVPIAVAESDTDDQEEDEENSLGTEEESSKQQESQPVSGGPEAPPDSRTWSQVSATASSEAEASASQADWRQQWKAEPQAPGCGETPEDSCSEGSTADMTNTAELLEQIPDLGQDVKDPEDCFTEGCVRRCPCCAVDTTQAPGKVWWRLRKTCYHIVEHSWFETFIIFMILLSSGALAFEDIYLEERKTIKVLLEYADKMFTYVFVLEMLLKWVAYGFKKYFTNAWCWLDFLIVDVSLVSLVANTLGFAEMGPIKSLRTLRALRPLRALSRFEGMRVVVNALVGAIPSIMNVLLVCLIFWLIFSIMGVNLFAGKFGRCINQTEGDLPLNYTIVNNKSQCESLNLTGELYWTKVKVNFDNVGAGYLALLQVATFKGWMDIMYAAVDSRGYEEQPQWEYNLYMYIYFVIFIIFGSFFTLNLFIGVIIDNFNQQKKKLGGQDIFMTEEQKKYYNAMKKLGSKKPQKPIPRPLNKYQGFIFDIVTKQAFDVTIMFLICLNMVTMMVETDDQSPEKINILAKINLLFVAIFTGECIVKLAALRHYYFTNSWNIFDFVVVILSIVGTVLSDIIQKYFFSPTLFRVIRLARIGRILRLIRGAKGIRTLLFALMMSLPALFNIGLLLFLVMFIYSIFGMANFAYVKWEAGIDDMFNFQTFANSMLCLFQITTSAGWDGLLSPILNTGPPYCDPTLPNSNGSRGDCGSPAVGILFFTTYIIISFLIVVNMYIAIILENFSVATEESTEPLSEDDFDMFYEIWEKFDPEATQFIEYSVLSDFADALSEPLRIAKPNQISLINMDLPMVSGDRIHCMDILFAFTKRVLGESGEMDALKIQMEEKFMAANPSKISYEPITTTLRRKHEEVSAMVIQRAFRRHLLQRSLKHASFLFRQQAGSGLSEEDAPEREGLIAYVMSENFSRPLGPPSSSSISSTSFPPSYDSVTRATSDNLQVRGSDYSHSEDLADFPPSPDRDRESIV

T1 sequence (Q15858 whole entry): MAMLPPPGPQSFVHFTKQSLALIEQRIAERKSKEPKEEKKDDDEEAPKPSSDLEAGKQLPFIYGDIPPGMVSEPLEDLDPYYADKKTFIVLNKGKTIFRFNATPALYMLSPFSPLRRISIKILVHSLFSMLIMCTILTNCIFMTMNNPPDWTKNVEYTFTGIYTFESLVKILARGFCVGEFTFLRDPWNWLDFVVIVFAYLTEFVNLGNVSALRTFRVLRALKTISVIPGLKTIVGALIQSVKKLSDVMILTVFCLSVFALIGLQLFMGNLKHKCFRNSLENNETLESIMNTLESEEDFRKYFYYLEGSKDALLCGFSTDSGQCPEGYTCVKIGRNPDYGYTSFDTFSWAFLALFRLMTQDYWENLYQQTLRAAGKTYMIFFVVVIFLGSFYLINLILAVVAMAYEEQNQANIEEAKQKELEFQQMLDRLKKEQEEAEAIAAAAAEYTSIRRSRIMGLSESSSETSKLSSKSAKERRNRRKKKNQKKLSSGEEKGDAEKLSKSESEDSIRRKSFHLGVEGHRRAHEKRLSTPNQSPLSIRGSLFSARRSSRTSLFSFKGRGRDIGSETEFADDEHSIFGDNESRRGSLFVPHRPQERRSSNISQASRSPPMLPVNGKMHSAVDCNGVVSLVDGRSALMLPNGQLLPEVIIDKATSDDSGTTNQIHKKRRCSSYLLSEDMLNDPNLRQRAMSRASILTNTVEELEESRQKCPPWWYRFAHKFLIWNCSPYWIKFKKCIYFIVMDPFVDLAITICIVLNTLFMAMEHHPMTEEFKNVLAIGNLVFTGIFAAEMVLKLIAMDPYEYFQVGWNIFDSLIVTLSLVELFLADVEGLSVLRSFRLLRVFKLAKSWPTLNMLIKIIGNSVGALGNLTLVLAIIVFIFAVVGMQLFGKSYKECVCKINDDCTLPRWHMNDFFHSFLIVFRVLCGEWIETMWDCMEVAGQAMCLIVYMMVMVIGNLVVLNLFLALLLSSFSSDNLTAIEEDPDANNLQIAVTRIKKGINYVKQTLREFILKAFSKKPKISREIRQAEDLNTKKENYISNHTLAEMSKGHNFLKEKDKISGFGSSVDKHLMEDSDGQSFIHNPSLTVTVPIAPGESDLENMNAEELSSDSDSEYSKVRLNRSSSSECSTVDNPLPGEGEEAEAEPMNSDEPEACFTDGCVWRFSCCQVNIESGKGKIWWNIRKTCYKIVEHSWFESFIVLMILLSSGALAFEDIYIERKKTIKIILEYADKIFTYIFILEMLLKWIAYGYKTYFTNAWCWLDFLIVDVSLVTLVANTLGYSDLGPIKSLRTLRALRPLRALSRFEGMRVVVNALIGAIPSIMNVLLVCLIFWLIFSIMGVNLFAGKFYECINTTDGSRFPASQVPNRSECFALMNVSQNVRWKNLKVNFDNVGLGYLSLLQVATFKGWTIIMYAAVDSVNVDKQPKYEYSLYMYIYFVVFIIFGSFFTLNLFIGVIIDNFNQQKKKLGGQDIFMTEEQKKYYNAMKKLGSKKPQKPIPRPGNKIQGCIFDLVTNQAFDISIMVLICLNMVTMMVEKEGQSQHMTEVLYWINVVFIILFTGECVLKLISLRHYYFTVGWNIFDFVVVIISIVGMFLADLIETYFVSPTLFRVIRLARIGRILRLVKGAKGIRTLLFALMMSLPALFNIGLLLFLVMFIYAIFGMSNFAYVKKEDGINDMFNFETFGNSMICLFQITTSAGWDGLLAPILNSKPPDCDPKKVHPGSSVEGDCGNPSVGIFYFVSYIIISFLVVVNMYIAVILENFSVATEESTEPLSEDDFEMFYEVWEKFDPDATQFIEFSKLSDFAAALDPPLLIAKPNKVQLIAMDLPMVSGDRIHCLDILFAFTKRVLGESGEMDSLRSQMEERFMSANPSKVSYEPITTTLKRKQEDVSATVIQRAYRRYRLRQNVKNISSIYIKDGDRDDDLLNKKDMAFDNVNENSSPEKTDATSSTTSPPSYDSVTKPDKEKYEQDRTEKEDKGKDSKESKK

Compound	IC50 (Nav 1.7 [1])	IC50 (Nav 1.7 [2])	IC50 (Nav 1.5)
O=S(=O)(Nc1nccs1)c1ccc2c(c1)OCCN2c1ccc(C(F)(F)F)cc1C(O)CO (stereo not drawn) [Example 204, 4-(2-(1,2-dihydroxyethyl)-4-(trifluoromethyl)phenyl)-N-(thiazol-2-yl)-3,4-dihydro-2H-benzo[b][1,4]oxazine-7-sulfonamide]	47.5 nM	343 nM	637 nM
COc1ccccc1N1CCOc2cc(S(=O)(=O)Nc3nccs3)ccc21 [Example 205, 4-(2-methoxyphenyl)-N-(thiazol-2-yl)-3,4-dihydro-2H-benzo[b][1,4]oxazine-7-sulfonamide]	38 nM	382 nM	> 10000 nM
O=S(=O)(Nc1nccs1)c1ccc2c(c1)OCCN2c1ccc(C(F)(F)F)cc1CO [Example 206, 4-(2-(hydroxymethyl)-4-(trifluoromethyl)phenyl)-N-(thiazol-2-yl)-3,4-dihydro-2H-benzo[b][1,4]oxazine-7-sulfonamide]	31.5 nM	174 nM	1140 nM
O=S(=O)(Nc1nccs1)c1ccc2c(c1)OCCN2c1ccc(Cl)cc1CC(O)CO (stereo not drawn) [Example 210, 4-(4-Chloro-2-(2,3-Dihydroxypropyl)Phenyl)-N-(Thiazol-2-Yl)-3,4-Dihydro-2H-Benzo[B][1,4]Oxazine-7-Sulfonamide]	12.5 nM	226 nM	6110 nM
O=S(=O)(Nc1nccs1)c1ccc2c(c1)OCCN2c1ccc(C(F)(F)F)cc1CCO [Example 211, 4-(2-(2-Hydroxyethyl)-4-(Trifluoromethyl)Phenyl)-N-(Thiazol-2-Yl)-3,4-Dihydro-2H-Benzo[B][1,4]Oxazine-7-Sulfonamide]	5.5 nM	229 nM	471 nM
N#Cc1cc(C(F)(F)F)ccc1N1CCOc2cc(S(=O)(=O)Nc3nccs3)c(Cl)cc21 [Example 212, 6-Chloro-4-(2-Cyano-4-(Trifluoromethyl)Phenyl)-N-(Thiazol-2-Yl)-3,4-Dihydro-2H-Benzo[B][1,4]Oxazine-7-Sulfonamide]	21.3 nM	373 nM	736 nM
COc1nc(C(F)(F)F)ccc1N1CCOc2cc(S(=O)(=O)Nc3nccs3)ccc21 [Example 214, 4-(2-Methoxy-6-(Trifluoromethyl)Pyridin-3-Yl)-N-(Thiazol-2-Yl)-3,4-Dihydro-2H-Benzo[B][1,4]Oxazine-7-Sulfonamide]	68.5 nM	800 nM	> 10000 nM
N#Cc1cc(C(F)(F)F)ccc1N1CCOc2cc(S(=O)(=O)Nc3nccs3)c(F)cc21 [Example 215, 4-(2-Cyano-4-(Trifluoromethyl)Phenyl)-6-Fluoro-N-(Thiazol-2-Yl)-3,4-Dihydro-2H-Benzo[B][1,4]Oxazine-7-Sulfonamide]	9.86 nM	183 nM	203 nM

Continued, in another order:

IC50 (Nav 1.7 [1])	IC50 (Nav 1.7 [2])	Compound	IC50 (Nav 1.5)
144 nM	150 nM	N#Cc1cc(-c2cccc(F)c2)ccc1N1CCOc2cc(S(=O)(=O)Nc3nccs3)ccc21 [Example 200, 4-(3-Cyano-3′-Fluoro-[1,1′-Biphenyl]-4-Yl)-N-(Thiazol-2-Yl)-3,4-Dihydro-2H-Benzo[B][1,4]Oxazine-7-Sulfonamide]	854 nM
143 nM	773 nM	COc1cc(-c2cccc(F)c2)ccc1N1CCOc2cc(S(=O)(=O)Nc3nccs3)ccc21 [Example 201, 4-(3′-Fluoro-3-Methoxy-[1,1′-Biphenyl]-4-Yl)-N-(Thiazol-2-Yl)-3,4-Dihydro-2H-Benzo[B][1,4]Oxazine-7-Sulfonamide]	4830 nM
93.5 nM	428 nM	CC(C)c1ccc(N2CCOc3cc(S(=O)(=O)Nc4nccs4)ccc32)c(C#N)c1 [Example 202, 4-(2-cyano-4-isopropylphenyl)-N-(thiazol-2-yl)-3,4-dihydro-2H-benzo[b][1,4]oxazine-7-sulfonamide]	686 nM
87.5 nM	469 nM	CCc1ccc(N2CCOc3cc(S(=O)(=O)Nc4nccs4)ccc32)c(C#N)c1 [Example 203, 4-(2-Cyano-4-Ethylphenyl)-N-(Thiazol-2-Yl)-3,4-Dihydro-2H-Benzo[B][1,4]Oxazine-7-Sulfonamide]	1090 nM
